Source: US20260356824A1, “COMPOUNDS FOR TREATING FIBROTIC DISEASES” (Meta-Immue Inc., priority 2023, published 2026)

Key:
[1] = molecular target: T1, hLPAR1 (Homo sapiens, UniProt Q92633); experiment: Ca2+ Flux Assay (B103 cells stably expressing hLPAR1); format: cell-based; details: LPA-induced calcium release, Fura-2 AM, compound 20 min at RT
T1 construct: expressed in transfected cells
Method in brief: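 Fura-2 AM (5 μM) loaded 40 min at RT in HBSS/20 mM HEPES/probenecid/0.3% fatty-acid-free BSA after 2 h serum starvation. Compounds preincubated 20 min at RT, then LPA […] added. Intracellular calcium mobilization read as fluorescence intensity.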

[2] = system: A2058 cells; experiment: Chemotaxis Assay (LPA-induced migration of A2058 cells); format: cell-based; details: Homo sapiens, 4 to 8 hours, crystal violet 590 nm
Method in brief: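 A2058 cells, starved 24 hr and treated with test compound or vehicle, were placed on a fibronectin-coated membrane ([…]) above […] in DMEM. After 4–8 h migration, migrated cells were crystal violet stained and read at 590 nm. Values are relative percentage of control.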

[3] = Liver microsomal stability, rat; format: in vitro ADME; details: rat liver microsomes; 30 min; percent of parent remaining; read-out: Liver Microsomal stability (%), % of remaining after 30 min, Rat
[4] = Liver microsomal stability, human; format: in vitro ADME; details: human liver microsomes; 30 min; percent of parent remaining; read-out: Liver Microsomal stability (%), % of remaining after 30 min, Human
[5] = molecular target: T2, BSEP (Homo sapiens, UniProt O95342); experiment: Bile Salt Export Pump (BSEP) Assay, Sf9 insect cell vesicles expressing BSEP; format: in vitro ADME; details: 10 μM test compound, probe substrate 1 μM [3H]-taurocholic acid, 15 min incubation
T2 construct: ATP-dependent uptake of radiolabelled probe substrate
T2 sequence (O95342 whole entry): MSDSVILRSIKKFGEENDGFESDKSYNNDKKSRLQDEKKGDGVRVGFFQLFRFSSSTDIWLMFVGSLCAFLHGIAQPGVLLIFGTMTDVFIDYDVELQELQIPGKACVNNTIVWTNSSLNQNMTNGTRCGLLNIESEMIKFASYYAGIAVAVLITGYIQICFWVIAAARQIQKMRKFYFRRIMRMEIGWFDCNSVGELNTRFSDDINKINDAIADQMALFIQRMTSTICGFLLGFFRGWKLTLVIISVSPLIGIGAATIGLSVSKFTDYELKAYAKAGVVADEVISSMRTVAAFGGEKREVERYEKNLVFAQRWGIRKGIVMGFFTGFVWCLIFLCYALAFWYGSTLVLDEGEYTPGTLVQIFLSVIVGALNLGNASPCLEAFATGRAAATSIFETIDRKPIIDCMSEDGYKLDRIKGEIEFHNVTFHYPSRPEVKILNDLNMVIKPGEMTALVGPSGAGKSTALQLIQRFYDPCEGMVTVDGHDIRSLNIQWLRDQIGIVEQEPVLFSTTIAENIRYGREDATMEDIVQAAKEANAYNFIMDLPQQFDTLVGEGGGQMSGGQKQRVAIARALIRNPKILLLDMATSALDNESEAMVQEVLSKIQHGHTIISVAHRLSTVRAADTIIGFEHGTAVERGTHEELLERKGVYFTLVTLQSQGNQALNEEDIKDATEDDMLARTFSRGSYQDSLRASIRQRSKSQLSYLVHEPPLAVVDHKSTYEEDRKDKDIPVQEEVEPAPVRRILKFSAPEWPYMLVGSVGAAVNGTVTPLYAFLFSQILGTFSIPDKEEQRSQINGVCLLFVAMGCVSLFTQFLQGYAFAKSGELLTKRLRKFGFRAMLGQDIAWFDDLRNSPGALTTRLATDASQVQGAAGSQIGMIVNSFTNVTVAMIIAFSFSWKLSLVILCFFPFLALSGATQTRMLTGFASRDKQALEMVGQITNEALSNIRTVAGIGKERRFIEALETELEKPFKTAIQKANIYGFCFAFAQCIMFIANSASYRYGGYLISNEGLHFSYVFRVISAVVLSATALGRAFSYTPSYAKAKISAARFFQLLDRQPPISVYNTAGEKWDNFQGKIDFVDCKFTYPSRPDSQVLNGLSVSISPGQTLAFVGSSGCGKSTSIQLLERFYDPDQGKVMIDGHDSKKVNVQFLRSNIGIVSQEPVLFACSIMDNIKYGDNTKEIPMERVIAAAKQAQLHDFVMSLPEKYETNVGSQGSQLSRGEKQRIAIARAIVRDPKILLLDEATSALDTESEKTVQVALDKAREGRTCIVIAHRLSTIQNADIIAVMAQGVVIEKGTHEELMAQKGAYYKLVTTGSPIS
Procedure: • 1. A stock solution was prepared with the test article (Sponsor compound) in DMSO. • 2. All final assay solutions of probe substrate, reference inhibitor or test article contain 0.5% (v/v) DMSO (vehicle control). • 3. Test article concentrations in transport study were specified in the Summary Table of Experimental Conditions of this protocol.
• 1. Bovine Serum Albumin (BSA) • 2. Dimethyl sulfoxide (DMSO) • 3. BSEP Assay Uptake Buffer (10 mM HEPES-Tris pH 7.4, 0.1 M KNO3, 12.5 mM Mg(NO3)2, 50 mM sucrose) • 4. BSEP Wash Buffer (10 mM Tris-HCl pH 7.4, 0.1 M KNO3, 50 mM sucrose) • 5. BSEP Blocking Buffer (BSEP Wash Buffer+0.5 mg/mL BSA) • 6. 25 mM Mg-ATP solution • 7. 25 mM AMP solution • 8. Corning Costar 96-well flat-bottom, untreated, white Assay Plate (Corning Cat. No. 3912) • 9. Millipore MultiscreenHTs Filtration Plate, glass fiber FB—1.0/0.65 μm (Cat. No. MSFBN6B10 or glass fiber FC—1.2/0.65 μm (Cat. No. MSFCN6B10) • 10. Millipore MultiscreenHTS Vacuum Manifold (Cat. No. MSVMHTS00) • 11. Probe substrates listed in Table 1 • 12. Reference inhibitors listed in Table 1 • 13. Test articles
• 1. Test system: • a. 96-well flat bottom plate containing a suspension of vesicles and a corresponding 96-well glass fiber filtration plate. • b. Transport experiments were conducted in the Assay Uptake Buffer. • c. Transport experiment was initiated with the addition of Mg-ATP or AMP to appropriate wells. • d. Each condition was run in triplicate wells. • 2. Prepared the 96-well flat-bottom assay plate. • a. Incubated the assay plate with the Blocking Buffer for 60 min at 37 °C with orbital shaking at approximately 90 rpm. (NOTE: This is done to prevent non-specific binding of vesicles to polystyrene assay plate). • b. After 60 min, completely removed the Blocking Buffer from the assay plate. • c. The Assay Uptake Buffer solutions were added to the assay plate wells as follows: • i. For probe substrate transport assays, the Assay Uptake Buffer contained vesicles and the probe substrate at the specified concentration. • ii. For the reference inhibition assay, the Assay Uptake Buffer contained vesicles, the reference inhibitor and the probe substrate at the specified concentration in Table 1. • iii. For the test article assays, Assay Uptake Buffer contained vesicles, the test article and the probe substrate at the specified concentration in Table 1. • 3. Incubate at 37 °C with orbital shaking at approximately 90 rpm for the time period specified in Table 1 of this protocol. • 4. Using the 25 mM Mg-ATP or AMP stocks, Mg-ATP or AMP was added to test wells of flat bottom assay plate to a final concentration of 5 mM. • 5. Incubated at 37 °C with orbital shaking at approximately 90 rpm for the incubation time specified in Table 1 of this protocol. • 6. Prepared the 96-well glass fiber filtration plate: • a. Incubated the filtration plate with the Blocking Buffer for 2 min at room temperature with under no vacuum. • b. Turned on vacuum and allowed Blocking Buffer to filter through plate. • c. With vacuum on, filter plate was washed with ice cold Wash Buffer. • 7. At the end of the specified incubation time indicated in […] of this protocol, vesicle transport was quenched by adding ice cold Wash Buffer to samples in 96-well assay plate. • 8. Mixed assay samples (now diluted in Wash Buffer) with pipette and transfered 175 μL into the 96-well glass fiber filtration plate to separate vesicles from buffer by applying vacuum. • 9. Washed filter plate wells with ice cold Wash Buffer. • 10. Allowed filter plate to dry under vacuum. • 11. Transfered filters to scintillation sample plate and added 700 μL of scintillation fluid to the above samples. • 12. Counted the above samples on a 1450 Microbeta (Perkin-Elmer).
• 1. The amount of substrate was quantified with radiometric detection on a 1450 Microbeta (Perkin-Elmer). • 2. For transport study samples run in triplicate, the mean and standard deviation of the replicates were reported. • 3. […]

T1 sequence (Q92633 whole entry): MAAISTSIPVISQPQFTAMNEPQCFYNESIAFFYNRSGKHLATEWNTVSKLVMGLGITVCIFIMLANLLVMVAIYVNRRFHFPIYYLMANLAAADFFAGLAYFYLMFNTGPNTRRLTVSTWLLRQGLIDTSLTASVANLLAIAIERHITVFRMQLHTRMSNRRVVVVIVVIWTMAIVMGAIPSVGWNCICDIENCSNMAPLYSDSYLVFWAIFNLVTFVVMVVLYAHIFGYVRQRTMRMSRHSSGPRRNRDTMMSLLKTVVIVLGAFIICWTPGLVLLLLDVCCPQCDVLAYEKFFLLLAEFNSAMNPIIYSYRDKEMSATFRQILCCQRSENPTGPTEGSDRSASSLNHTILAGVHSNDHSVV

SMILES	IC50 [1]	IC50 [2]	remaining at 0.5 h [3]	remaining at 0.5 h [4]	inhibition at 0.25 h, 10 µM [5]
Cc1noc([C@H]2CCN(c3ccc(C4(C(=O)O)CC4)cc3)[C@@H](C)C2)c1NC(=O)O[C@H](C)c1ccccc1 (single isomer, unassigned) [Compound 10]	10 to 200 nM	< 100 nM	> 75%	> 75%	25 to 50%
Cc1noc([C@@H]2CCN(c3ccc(C4(C(=O)O)CC4)cc3)[C@H](C)C2)c1NC(=O)O[C@H](C)c1ccccc1 (single isomer, unassigned) [Compound 21]	10 to 200 nM	< 100 nM	> 75%	> 75%	–
Cn1nnc(C2CCN(c3ccc(C4(C(=O)O)CC4)cc3)CC2)c1Nc1cccc(-c2ccccc2)n1 [Compound 6]	10 to 200 nM	500 to 5000 nM	> 75%	> 75%	–
Cc1noc(N2CCC(c3ccc(C4(C(=O)O)CC4)cc3)CC2)c1NC(=O)O[C@H](C)c1ccccc1 [Compound 8, (R)-1-(4-(1-(3-methyl-4-(((1-phenylethoxy)carbonyl)amino)isoxazol-5-yl)piperidin-4-yl)phenyl)cyclopropane-1-carboxylic acid]	< 10 nM	100 to 500 nM	50 to 75%	50 to 75%	50 to 75%
Cc1noc(C2CCN(c3ccc(C4(C(=O)NS(C)(=O)=O)CC4)cc3)CC2)c1NC(=O)O[C@H](C)c1ccccc1 [Compound 12]	10 to 200 nM	< 100 nM	50 to 75%	> 75%	25 to 50%
CCCN(C)C(=O)OCc1c(C)noc1C1CCN(c2ccc(C3(C(=O)NS(=O)(=O)C(F)(F)F)CC3)cc2)CC1 [Compound 13]	≥ 3000 nM	≥ 5000 nM	50 to 75%	≤ 25%	–
Cc1noc(C2CCN(c3ccc(C4(C(=O)O)CC4)cc3)CC2)c1N[C@H](C)CCc1ccccc1 [Compound 22]	10 to 200 nM	100 to 500 nM	50 to 75%	50 to 75%	–
Cc1noc(C2CN(c3ccc(C4(C(=O)O)CC4)cc3)C2)c1NC(=O)O[C@H](C)c1ccccc1 [Compound 23, (R)-1-(4-(3-(3-methyl-4-(((1-phenylethoxy)carbonyl)amino)isoxazol-5-yl)azetidin-1-yl)phenyl)cyclopropane-1-carboxylic acid]	10 to 200 nM	500 to 5000 nM	> 75%	> 75%	25 to 50%
Cc1noc(C2CCN(c3ccc(C4(C(=O)O)CC4)cc3)CC2)c1CNC(=O)O[C@@H](C)c1ccccc1 [Compound 25]	10 to 200 nM	≥ 5000 nM	> 75%	> 75%	–

The next lines start with results.

IC50 [1]	IC50 [2]	remaining at 0.5 h [3]	remaining at 0.5 h [4]	SMILES	inhibition at 0.25 h, 10 µM [5]
< 10 nM	< 100 nM	50 to 75%	25 to 50%	Cc1ccccc1[C@@H](C)OC(=O)Nc1c(C)noc1C1CCN(c2ccc(C3(C(=O)NS(N)(=O)=O)CC3)cc2)CC1 [Compound 35]	–
< 10 nM	< 100 nM	> 75%	25 to 50%	CCc1ccccc1[C@@H](C)OC(=O)Nc1c(C)noc1C1CCN(c2ccc(C3(C(=O)O)CC3)cc2)CC1 [Compound 38, (R)-1-(4-(4-(4-(((1-(2-ethylphenyl)ethoxy)carbonyl)amino)-3-methylisoxazol-5-yl)piperidin-1-yl)phenyl)cyclopropane-1-carboxylic acid]	50 to 75%
10 to 200 nM	100 to 500 nM	> 75%	> 75%	Cc1nc(C2(C(=O)O)CC2)ccc1N1CCC(c2onc(C)c2NC(=O)O[C@H](C)c2ccccc2)CC1 [Compound 62]	25 to 50%
< 10 nM	< 100 nM	25 to 50%	50 to 75%	Cc1noc(C2CCN(c3ccc(C4(c5cc(O)no5)CC4)cc3)CC2)c1NC(=O)O[C@H](C)c1ccccc1 [Compound 64]	75 to 100%
< 10 nM	< 100 nM	> 75%	> 75%	Cc1noc(C2CCN(c3ccc(C4(C(=O)NS(=O)(=O)C(C)(C)C(=O)O)CC4)cc3)CC2)c1NC(=O)O[C@H](C)c1ccccc1 [Compound 67, 2-methyl-2-[[1-[4-[4-[3-methyl-4-[[(1R)-1-phenylethoxy]carbonylamino]isoxazol-5-yl]-1-piperidyl]phenyl]cyclopropanecarbonyl]sulfamoyl]propanoic acid]	25 to 50%
< 10 nM	< 100 nM	> 75%	> 75%	Cc1noc(C2CCN(c3ccc(C4(C(=O)NS(=O)(=O)C(C)(C)CO)CC4)cc3)CC2)c1NC(=O)O[C@H](C)c1ccccc1 [Compound 70]	–
< 10 nM	< 100 nM	–	–	Cc1noc(C2CCN(c3ccc(C4(C(=O)NS(=O)(=O)CC(C)CO)CC4)cc3)CC2)c1NC(=O)O[C@H](C)c1ccccc1 (stereo partly drawn) [Compound 79, (1R)-1-phenylethyl N-{5-[1-(4-{1-[(3-hydroxy-2-methylpropanesulfonyl)carbamoyl]cyclopropyl}phenyl)piperidin-4-yl]-3-methyl-1,2-oxazol-4-yl}carbamate]	25 to 50%
< 10 nM	< 100 nM	50 to 75%	> 75%	Cc1noc(C2CCN(c3ccc(C4(C(=O)NS(=O)(=O)CC(=O)O)CC4)cc3)CC2)c1NC(=O)O[C@H](C)c1ccccc1 [Compound 80]	25 to 50%
10 to 200 nM	100 to 500 nM	–	–	Cc1noc(C2CCN(c3ccc(C4(C(=O)O)CC4)nc3)CC2)c1NC(=O)O[C@H](C)c1ccccc1 [Compound 90]	25 to 50%
10 to 200 nM	< 100 nM	–	–	C[C@@H](OC(=O)Nc1cc(Cl)sc1C1CCN(c2ccc(C3(C(=O)O)CC3)cc2)CC1)c1ccccc1 [Compound 92, 1-(4-{4-[5-chloro-3-({[(1R)-1-phenylethoxy]carbonyl}amino)thiophen-2-yl]piperidin-1-yl}phenyl)cyclopropane-1-carboxylic acid]	75 to 100%
10 to 200 nM	< 100 nM	–	–	C[C@@H](OC(=O)Nc1ccsc1C1CCN(c2ccc(C3(C(=O)O)CC3)cc2)CC1)c1ccccc1 [Compound 93]	50 to 75%
10 to 200 nM	100 to 500 nM	–	–	Cc1nsc(C2CCN(c3ccc(C4(C(=O)O)CC4)cc3)CC2)c1NC(=O)O[C@H](C)c1ccccc1 [Compound 95]	25 to 50%
